Laboratory results published in EP0309424A2, “New amidino derivatives” (ISTITUTO DE ANGELI S.p.A., priority 1987, dated 1989).
Counter-ions that a name gives are not always drawn.

What follows are compounds tested against T1, muscarinic receptors of the cerebral cortex (Rattus norvegicus, UniProt P08482) (assay: Antimuscarinic activity (in vitro binding studies): displacement of 3H-pirenzepine from cerebral cortex homogenate). Details: not given.
T1 construct: displacement of ^3H-pirenzepine from cerebral cortex homogenate; from tissue; host or cells: rat cerebral cortex homogenate
T1 sequence (P08482 1-460): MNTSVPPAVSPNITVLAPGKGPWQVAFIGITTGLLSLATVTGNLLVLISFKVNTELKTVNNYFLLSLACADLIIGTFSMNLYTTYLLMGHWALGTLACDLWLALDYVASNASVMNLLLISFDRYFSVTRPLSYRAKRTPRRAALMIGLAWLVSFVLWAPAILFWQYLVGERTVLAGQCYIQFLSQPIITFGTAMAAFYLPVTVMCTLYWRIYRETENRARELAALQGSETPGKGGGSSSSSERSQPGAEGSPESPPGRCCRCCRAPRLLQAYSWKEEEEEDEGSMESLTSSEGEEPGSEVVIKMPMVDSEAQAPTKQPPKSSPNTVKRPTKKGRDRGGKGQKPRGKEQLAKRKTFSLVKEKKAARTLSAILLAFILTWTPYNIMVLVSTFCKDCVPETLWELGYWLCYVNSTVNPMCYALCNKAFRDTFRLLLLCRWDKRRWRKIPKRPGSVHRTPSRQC
Design: species or system male CD-COOBBS rats
Description: Antimuscarinic activity was examined by studying the displacement of ^3H-pirenzepine from cerebral cortex homogenate according to the procedure reported below: • The cerebral cortex donors were male CD-COOBBS rats, 220-250 g body weight. The homogenization process was carried out in a Potter-Evelhjem apparatus in the presence of Na^+/Mg^++ HEPES buffer; pH 7.4 (100 mM NaCI, 10 mM MgC12, 20 mM HEPES), by filtering the suspension through two layers of cheesecloth. Binding curves for the under study compounds were derived indirectly from competition experiments against 0.5 nM ^3H-pirenzepine labelling the muscarinic receptors of the cerebral cortex. 1 ml of the homogenate was incubated for 45 min at 30° C in the presence of a marker ligand and different concentrations of the cold ligand, conditions under which equilibrium was reached as determined by appropriate association experiments. The incubation was terminated by centrifugation (12,000 rpm for 3 min) at room temperature using an Eppendorf microcentrifuge. The resultant pellet was washed twice with 1.5 ml saline to remove the free radioactivity and it was allowed to drain for some hours. The tips of the tubes containing the pellet were cut off and 200 µl of tissue solubilizer (Lumasolve, Lumac) were added and left to stand overnight. Radioactivity was then counted after addition of 4 ml of liquid scintillation mixture (Dimilume/Toluene 1:10 v:v, Packard)
Non-specific binding avaraged less than 30%. KD values (dissociation constants) were obtained by non-linear regression analysis on the basis of a one binding site model with TOPFIT-pharmacokinetic programme package (G. HEINZEL, "Pharmacokinetics during drug development: data analysis and evaluation techniques" Eds. G. BOLZER and J.M. VAN ROSSUM; p. 207, G. Fisher, New York, 1982) after correction for the radioligand occupancy shift according to the equation: Ko = ICso/1 + *C/*KD, where "C and *KD represent the concentration and the dissociation constant of the radioligand used, respectively.

| Compound | Ki [nM] |
| --- | --- |
| CC(=N)N1C2CC(OC(=O)C(CO)c3ccccc3)CC1C1OC12 (single isomer, unassigned; (-)) [Compound 65, (-)-N-iminoethyl-norscopolamine] | 2 |
| N=C(N)N1C2CCC1CC(OC(=O)C(CO)c1ccccc1)C2 (racemic) [Compound 1, N-guanyl-Noratropine] | 7 |
| CC(=N)N1C2CCC1CC(OC(=O)C(CO)c1ccccc1)C2 (racemic) [Compound 64, N-iminoethyl-noratropine] | 3.4 |

Same assay, conditions: competition against 0.5 nM 3H-pirenzepine, rat cerebral cortex homogenate, 45 min at 30° C, corrected for radioligand occupancy shift; read-out: Dissociation constants (KD) for 3H-pirenzepine binding

| Ki [nM] | Compound |
| --- | --- |
| 4.4 | N=CN1CCC(OC(=O)C(c2ccccc2)c2ccccc2)CC1 [Compound 34, Benzeneacetic acid,α-phenyl,1-(iminomethyl)-4-piperidinyl ester, hydrochloride] |
| 17 | N=C(N)N1CCN(CC(O)(c2ccccc2)C2CCCCC2)CC1 (stereo not shown) [Compound 4, N-guanyl-N'-[(2-phenyl-2-cyclohexyl-2-hydroxy)-ethyl]-piperazine] |
| 30 | CC(=N)N1CCN(CC(O)(c2ccccc2)C2CCCCC2)CC1 (stereo not shown) [Compound 62, N-(iminoethyl)-N'-[(2-hydroxy-2-phenyl-2-cyclohexyl)ethyl]-piperazine] |
| 12 | N=CN1CCN(CC(O)(c2ccccc2)C2CCCCC2)CC1 (stereo not shown) [Compound 35, N-iminomethyl-N'-[(2-hydroxy-2-phenyl-2-cydohexyl)-ethyl]-piperazine] |
| 32 | CN=CN1CCC(=C(c2ccccc2)c2ccccc2)CC1 [Compound 28, Piperidine,4-(diphenylmethylene)-,1-[N-methyl-(iminomethyl)]] |
| 15 | N=C(N)N1CCC(OC(=O)C(c2ccccc2)c2ccccc2)CC1 [Compound 14, Benzeneacetic acid,a-phenyl-,1-guanyl-4-piperidinyl ester] |
| 38 | N=C(N)N1CCC(CC(O)(c2ccccc2)c2ccccc2)CC1 [Compound 24, 2-[(N-guanyl-piperidin-4-yl)]-1,1-diphenyl-ethanol] |
